± gives the expanded uncertainty stated by the source.
How the values were obtained:
[1] = Liquid, Ebulliometric method (Recirculating still)
[2] = refractive index (Na D-line) (dimensionless); conditions: 298.15 K; 101.33 kPa; Liquid; Standard Abbe refractometry

## CCOC(C)=O [ethyl acetate]
[1]; 350.23 K
  vapor or sublimation pressure: 101.33 ± 1.6 kPa
[2]
  refractive index: 1.3712 ± 0.0005

## C[Si](C)(C)O[Si](C)(C)C [hexamethyldisiloxane]
[1]; 372.73 K
  vapor or sublimation pressure: 101.33 ± 1.6 kPa
[2]
  refractive index: 1.3737 ± 0.0005
